The values below come from patent US7902373B2 (Pfizer Inc, priority 2006, dated 2011).

Chain of human recombinant H-PGDS (O60760 whole entry): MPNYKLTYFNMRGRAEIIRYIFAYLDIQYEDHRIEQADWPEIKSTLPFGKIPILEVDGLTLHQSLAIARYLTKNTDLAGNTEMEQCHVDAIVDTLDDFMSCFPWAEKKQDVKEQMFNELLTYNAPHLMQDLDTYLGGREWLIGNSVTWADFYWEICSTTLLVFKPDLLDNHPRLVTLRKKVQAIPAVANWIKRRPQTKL

This assay concerns the target human recombinant H-PGDS (Homo sapiens, UniProt O60760). Description: Fluorescence intensity h-PGDS TBA enzyme assay. The conditions noted are these: Examples up to 622 (and 3a, 3b). The format is biochemical.
On to `Cc1ccc(-c2c(CN3CCC(NC(=O)c4ccc(-c5cccc(F)c5)nc4)CC3)cnn2C)cc1` [Example 510, 6-(3-Fluorophenyl)-N-(1-{[1-methyl-5-(4-methylphenyl)-1H-pyrazol-4-yl]methyl}piperidin-4-yl)nicotinamide], for which the half-inhibitory concentration (IC50) (in general, the concentration needed to halve the response being measured) was 2.74 nM.

In the case of `CC1(CN2CCC(NC(=O)c3ccc(-c4cccc(F)c4)nc3)CC2)CCC1` [Example 511, 6-(3-Fluorophenyl)-N-{1-[(1-methylcyclobutyl)methyl]piperidin-4-yl}nicotinamide], the IC50 was found to be 1.09 nM. `O=C(NC1CCN(Cc2n[nH]c3ccc(Cl)cc23)CC1)c1ccc(-c2cccc(F)c2)nc1` [Example 512, N-{1-[(5-Chloro-1H-indazol-3-yl)methyl]piperidin-4-yl}-6-(3-fluorophenyl)nicotinamide]: the 50% inhibitory concentration (IC50) amounted to 0.391 nM. As to `O=C(NC1CCN(Cc2n[nH]c3ccccc23)CC1)c1ccc(-c2cccc(F)c2)nc1` [Example 513, 6-(3-Fluorophenyl)-N-[1-(1H-indazol-3-ylmethyl)piperidin-4-yl]nicotinamide], the IC50 came out at 0.363 nM. For `O=C1COc2ncc(CN3CCC(NC(=O)c4ccc(-c5cccc(F)c5)nc4)CC3)cc2N1` [Example 514, 6-(3-Fluorophenyl)-N-{1-[(2-oxo-2,3-dihydro-1H-pyrido[2,3-b][1,4]oxazin-7-yl)methyl]piperidin-4-yl}nicotinamide], the IC50 is 0.348 nM.

Take `COc1ccc(C)cc1CN1CCC(NC(=O)c2ccc(-c3cccc(F)c3)nc2)CC1` [Example 515, 6-(3-Fluorophenyl)-N-[1-(2-methoxy-5-methylbenzyl)piperidin-4-yl]nicotinamide]: the half-maximal inhibitory concentration (IC50) worked out at 1.1 nM. As for `CCCn1cc(CN2CCC(NC(=O)c3ccc(-c4cccc(F)c4)nc3)CC2)cn1` [Example 516, 6-(3-Fluorophenyl)-N-{1-[(1-propyl-1H-pyrazol-4-yl)methyl]piperidin-4-yl}nicotinamide], the IC50 worked out at 2.2 nM. The value for `CCCn1nccc1CN1CCC(NC(=O)c2ccc(-c3cccc(F)c3)nc2)CC1` [Example 517, 6-(3-Fluorophenyl)-N-{1-[(1-propyl-1H-pyrazol-5-yl)methyl]piperidin-4-yl}nicotinamide] was 0.41 nM. The value for `O=C(NC1CCN(Cc2coc3ccccc23)CC1)c1ccc(-c2cccc(F)c2)nc1` [Example 518, N-[1-(1-Benzofuran-3-ylmethyl)piperidin-4-yl]-6-(3-fluorophenyl)nicotinamide] was 0.96 nM; that for `Cn1ncc(Cl)c1CN1CCC(NC(=O)c2ccc(-c3cccc(F)c3)nc2)CC1` [Example 519, N-{1-[(4-Chloro-1-methyl-1H-pyrazol-5-yl)methyl]piperidin-4-yl}-6-(3-fluorophenyl)nicotinamide] was 0.445 nM; that for `O=C(NC1CCN(Cc2ccc3occc3c2)CC1)c1ccc(-c2cccc(F)c2)nc1` [Example 520, N-[1-(1-Benzofuran-5-ylmethyl)piperidin-4-yl]-6-(3-fluorophenyl)nicotinamide] was 1.93 nM. Turning to `O=C(NC1CCN(C(=O)OCc2ccccc2)CC1)c1ccc(-c2cccc(F)c2)nc1` [Example 521, Benzyl 4-({[6-(3-fluorophenyl)pyridin-3-yl]carbonyl}amino)piperidine-1-carboxylate], the half-inhibitory concentration (IC50) worked out at 556 nM. The value for `CC(C)(C)OC(=O)N1[C@@H]2CC[C@H]1CC(NC(=O)c1ccc(-c3cccc(F)c3)nc1)C2` (stereo partly drawn) [Example 522, tert-Butyl (1R,5S)-3-({[6-(3-fluorophenyl)pyridin-3-yl]carbonyl}amino)-8-azabicyclo[3.2.1]octane-8-carboxylate] was 6.54 nM; that for `CC(C)(C)OC(=O)N1CCC(NC(=O)c2ccc(-c3cccc(F)c3)nc2)C(c2ccc(F)cc2)C1` (stereo not shown) [Example 523, tert-Butyl 3-(4-fluorophenyl)-4-({[6-(3-fluorophenyl)pyridin-3-yl]carbonyl}amino)piperidine-1-carboxylate] was 217 nM; that for `O=CN1CCC(NC(=O)c2ccc(-c3cccc(F)c3)nc2)CC1` [Example 524, 6-(3-Fluorophenyl)-N-(1-formylpiperidin-4-yl)nicotinamide] was 1.76 nM. The figure for `O=C(NC1CCNCC1c1ccc(F)cc1)c1ccc(-c2cccc(F)c2)nc1` (stereo not shown) [Example 525, 6-(3-Fluorophenyl)-N-[3-(4-fluorophenyl)piperidin-4-yl]nicotinamide] is 14.8 nM; for `CC(=O)N1CCC(NC(=O)c2ccc(-c3cccc(F)c3)nc2)C(c2ccc(F)cc2)C1` (stereo not shown) [Example 526] it is 76.3 nM. In the case of `CC(CC1CC1)N1CCC(NC(=O)c2ccc(-c3cccc(F)c3)nc2)CC1` (stereo not shown) [Example 527, N-[1-(2-Cyclopropyl-1-methylethyl)piperidin-4-yl]-6-(3-fluorophenyl)nicotinamide], the IC50 stood at 2.84 nM. In the case of `COc1ccc2c(c1)CCC2N1CCC(NC(=O)c2ccc(-c3cccc(F)c3)nc2)CC1` (stereo not shown) [Example 528, 6-(3-Fluorophenyl)-N-[1-(5-methoxy-2,3-dihydro-1H-inden-1-yl)piperidin-4-yl]nicotinamide], the IC50 came out at 2.49 nM. With `CC(CC1(C)CC1)N1CCC(NC(=O)c2ccc(-c3cccc(F)c3)nc2)CC1` (stereo not shown) [Example 529, 6-(3-Fluorophenyl)-N-{1-[1-methyl-2-(1-methylcyclopropyl)ethyl]piperidin-4-yl}nicotinamide], the half-maximal inhibitory concentration (IC50) is 2.5 nM. On to `COc1ccccc1C(C)N1CCC(NC(=O)c2ccc(-c3cccc(F)c3)nc2)CC1` (stereo not shown) [Example 530, 6-(3-Fluorophenyl)-N-{1-[1-(2-methoxyphenyl)ethyl]piperidin-4-yl}nicotinamide], for which the IC50 was 2.71 nM.

With `CC(c1ccccc1)N1CCC(NC(=O)c2ccc(-c3cccc(F)c3)nc2)CC1` (stereo not shown) [Example 531, 6-(3-Fluorophenyl)-N-[1-(1-phenylethyl)piperidin-4-yl]nicotinamide], the half-inhibitory concentration (IC50) came to 1.15 nM. Take `COc1cccc(C(C)N2CCC(NC(=O)c3ccc(-c4cccc(F)c4)nc3)CC2)c1` (stereo not shown) [Example 532, 6-(3-Fluorophenyl)-N-{1-[1-(3-methoxyphenyl)ethyl]piperidin-4-yl}nicotinamide]: the half-inhibitory concentration (IC50) was determined as 1.3 nM. As to `COc1cccc(OC)c1C(C)N1CCC(NC(=O)c2ccc(-c3cccc(F)c3)nc2)CC1` (stereo not shown) [Example 533, N-{1-[1-(2,6-Dimethoxyphenyl)ethyl]piperidin-4-yl}-6-(3-fluorophenyl)nicotinamide], the concentration for half-maximal inhibition (IC50) came to 2.42 nM.

Regarding `COc1ccc(CC(C)N2CCC(NC(=O)c3ccc(-c4cccc(F)c4)nc3)CC2)cc1` (stereo not shown) [Example 534, 6-(3-Fluorophenyl)-N-{1-[2-(4-methoxyphenyl)-1-methylethyl]piperidin-4-yl}nicotinamide], the IC50 worked out at 0.234 nM. With `COc1ccc(C(C)N2CCC(NC(=O)c3ccc(-c4cccc(F)c4)nc3)CC2)cc1` (stereo not shown) [Example 535, 6-(3-Fluorophenyl)-N-{1-[1-(4-methoxyphenyl)ethyl]piperidin-4-yl}nicotinamide], the half-maximal inhibitory concentration (IC50) amounted to 2.11 nM. The figure for `COc1ccc(C(C)N2CCC(NC(=O)c3ccc(-c4cccc(F)c4)nc3)CC2)cc1OC` (stereo not shown) [Example 536, N-{1-[1-(3,4-Dimethoxyphenyl)ethyl]piperidin-4-yl}-6-(3-fluorophenyl)nicotinamide] is 1.75 nM. The figure for `O=C(NC1CCN(C2CCC(=O)N(CC3CC3)CC2)CC1)c1ccc(-c2cccc(F)c2)nc1` (stereo not shown) [Example 537, N-{1-[1-(Cyclopropylmethyl)-7-oxoazepan-4-yl]piperidin-4-yl}-6-(3-fluorophenyl)nicotinamide] is 2.68 nM.
